# In BigSolDB 2.1:
smiles,measurement,setting,value
CC(=O)Nc1ccc(OC(=O)c2ccccc2OC(C)=O)cc1,solubility (mole fraction),"in acetone, 278.15 K",0.00215
same,solubility (mole fraction),"in acetone, 283.15 K",0.00268
same,solubility (mole fraction),"in acetone, 288.15 K",0.00353
same,solubility (mole fraction),"in acetone, 293.15 K",0.00414
same,solubility (mole fraction),"in acetone, 298.15 K",0.0052
same,solubility (mole fraction),"in acetone, 303.15 K",0.00593
same,solubility (mole fraction),"in acetone, 308.15 K",0.00792
same,solubility (mole fraction),"in acetone, 313.15 K",0.0098
same,solubility (mole fraction),"in acetone, 318.15 K",0.0123
same,solubility (mole fraction),"in acetonitrile, 278.15 K",0.00129
same,solubility (mole fraction),"in acetonitrile, 283.15 K",0.00153
same,solubility (mole fraction),"in acetonitrile, 288.15 K",0.00192
same,solubility (mole fraction),"in acetonitrile, 293.15 K",0.00235
same,solubility (mole fraction),"in acetonitrile, 298.15 K",0.00275
same,solubility (mole fraction),"in acetonitrile, 303.15 K",0.00378
same,solubility (mole fraction),"in acetonitrile, 308.15 K",0.00452
same,solubility (mole fraction),"in acetonitrile, 313.15 K",0.00575
same,solubility (mole fraction),"in acetonitrile, 318.15 K",0.00674
same,solubility (mole fraction),"in ethanol, 278.15 K",0.000242
same,solubility (mole fraction),"in ethanol, 283.15 K",0.000364
same,solubility (mole fraction),"in ethanol, 288.15 K",0.000497
same,solubility (mole fraction),"in ethanol, 293.15 K",0.000601
same,solubility (mole fraction),"in ethanol, 298.15 K",0.000717
same,solubility (mole fraction),"in ethanol, 303.15 K",0.000987
same,solubility (mole fraction),"in ethanol, 308.15 K",0.00125
same,solubility (mole fraction),"in ethanol, 313.15 K",0.00155
same,solubility (mole fraction),"in ethanol, 318.15 K",0.002
same,solubility (mole fraction),"in ethyl acetate, 278.15 K",0.000904
same,solubility (mole fraction),"in ethyl acetate, 283.15 K",0.00109
same,solubility (mole fraction),"in ethyl acetate, 288.15 K",0.00115
same,solubility (mole fraction),"in ethyl acetate, 293.15 K",0.00147
same,solubility (mole fraction),"in ethyl acetate, 298.15 K",0.00179
same,solubility (mole fraction),"in ethyl acetate, 303.15 K",0.00216
same,solubility (mole fraction),"in ethyl acetate, 308.15 K",0.00268
same,solubility (mole fraction),"in ethyl acetate, 313.15 K",0.00325
same,solubility (mole fraction),"in ethyl acetate, 318.15 K",0.00391
same,solubility (mole fraction),"in ethyl formate, 278.15 K",0.000965
same,solubility (mole fraction),"in ethyl formate, 283.15 K",0.00111
same,solubility (mole fraction),"in ethyl formate, 288.15 K",0.00138
same,solubility (mole fraction),"in ethyl formate, 293.15 K",0.00165
same,solubility (mole fraction),"in ethyl formate, 298.15 K",0.00193
same,solubility (mole fraction),"in ethyl formate, 303.15 K",0.00227
same,solubility (mole fraction),"in ethyl formate, 308.15 K",0.00299
same,solubility (mole fraction),"in ethyl formate, 313.15 K",0.00394
same,solubility (mole fraction),"in ethyl formate, 318.15 K",0.00449
same,solubility (mole fraction),"in isobutanol, 278.15 K",0.000204
same,solubility (mole fraction),"in isobutanol, 283.15 K",0.000272
same,solubility (mole fraction),"in isobutanol, 288.15 K",0.000344
same,solubility (mole fraction),"in isobutanol, 293.15 K",0.000485
same,solubility (mole fraction),"in isobutanol, 298.15 K",0.000587
same,solubility (mole fraction),"in isobutanol, 303.15 K",0.000739
same,solubility (mole fraction),"in isobutanol, 308.15 K",0.00107
same,solubility (mole fraction),"in isobutanol, 313.15 K",0.00131
same,solubility (mole fraction),"in isobutanol, 318.15 K",0.00161
same,solubility (mole fraction),"in isopropanol, 278.15 K",0.000153
same,solubility (mole fraction),"in isopropanol, 283.15 K",0.000216
same,solubility (mole fraction),"in isopropanol, 288.15 K",0.000261
same,solubility (mole fraction),"in isopropanol, 293.15 K",0.000314
same,solubility (mole fraction),"in isopropanol, 298.15 K",0.000481
same,solubility (mole fraction),"in isopropanol, 303.15 K",0.000593
same,solubility (mole fraction),"in isopropanol, 308.15 K",0.000833
same,solubility (mole fraction),"in isopropanol, 313.15 K",0.00106
same,solubility (mole fraction),"in isopropanol, 318.15 K",0.00137
same,solubility (mole fraction),"in isopropyl acetate, 278.15 K",0.000329
same,solubility (mole fraction),"in isopropyl acetate, 283.15 K",0.000423
same,solubility (mole fraction),"in isopropyl acetate, 288.15 K",0.00056
same,solubility (mole fraction),"in isopropyl acetate, 293.15 K",0.000886
same,solubility (mole fraction),"in isopropyl acetate, 298.15 K",0.00106
same,solubility (mole fraction),"in isopropyl acetate, 303.15 K",0.00145
same,solubility (mole fraction),"in isopropyl acetate, 308.15 K",0.00189
same,solubility (mole fraction),"in isopropyl acetate, 313.15 K",0.00241
same,solubility (mole fraction),"in isopropyl acetate, 318.15 K",0.00314
same,solubility (mole fraction),"in methanol, 278.15 K",0.000427
same,solubility (mole fraction),"in methanol, 283.15 K",0.000575
same,solubility (mole fraction),"in methanol, 288.15 K",0.000718
same,solubility (mole fraction),"in methanol, 293.15 K",0.000908
same,solubility (mole fraction),"in methanol, 298.15 K",0.001
same,solubility (mole fraction),"in methanol, 303.15 K",0.00129
same,solubility (mole fraction),"in methanol, 308.15 K",0.00171
same,solubility (mole fraction),"in methanol, 313.15 K",0.0021
same,solubility (mole fraction),"in methanol, 318.15 K",0.00271
same,solubility (mole fraction),"in methyl acetate, 278.15 K",0.000971
same,solubility (mole fraction),"in methyl acetate, 283.15 K",0.00121
same,solubility (mole fraction),"in methyl acetate, 288.15 K",0.00155
same,solubility (mole fraction),"in methyl acetate, 293.15 K",0.00183
same,solubility (mole fraction),"in methyl acetate, 298.15 K",0.0023
same,solubility (mole fraction),"in methyl acetate, 303.15 K",0.00267
same,solubility (mole fraction),"in methyl acetate, 308.15 K",0.0034
same,solubility (mole fraction),"in methyl acetate, 313.15 K",0.00406
same,solubility (mole fraction),"in methyl acetate, 318.15 K",0.00481
same,solubility (mole fraction),"in n-butanol, 278.15 K",0.000302
same,solubility (mole fraction),"in n-butanol, 283.15 K",0.000407
same,solubility (mole fraction),"in n-butanol, 288.15 K",0.000517
same,solubility (mole fraction),"in n-butanol, 293.15 K",0.000643
same,solubility (mole fraction),"in n-butanol, 298.15 K",0.000764
same,solubility (mole fraction),"in n-butanol, 303.15 K",0.000939
same,solubility (mole fraction),"in n-butanol, 308.15 K",0.00127
same,solubility (mole fraction),"in n-butanol, 313.15 K",0.00143
same,solubility (mole fraction),"in n-butanol, 318.15 K",0.00174
same,solubility (mole fraction),"in n-propanol, 278.15 K",0.000181
same,solubility (mole fraction),"in n-propanol, 283.15 K",0.000268
same,solubility (mole fraction),"in n-propanol, 288.15 K",0.000361
same,solubility (mole fraction),"in n-propanol, 293.15 K",0.000561
same,solubility (mole fraction),"in n-propanol, 298.15 K",0.000723
same,solubility (mole fraction),"in n-propanol, 303.15 K",0.000994
same,solubility (mole fraction),"in n-propanol, 308.15 K",0.0013
same,solubility (mole fraction),"in n-propanol, 313.15 K",0.00166
same,solubility (mole fraction),"in n-propanol, 318.15 K",0.00222
